Columns and labels:
[1] = test system: human epidennoid cells, virally infected with HSV-2; details: cited from earlier work
[2] = test system: human epidennoid cells, virally infected with HSV-2
[3] = test system: human epidennoid cells, virally infected with HSV-2; details: cited from earlier work; remark: listed apart in the source

For CC(=O)OC[C@]12CCC(C)=C[C@H]1O[C@@H]1[C@H](O)[C@@H](OC(C)=O)[C@@]2(C)[C@]12CO2 [DAS], the “Trichothecene in vitro concentration, Inhibitory 80%” value [1] is listed as 4.0 ng/mL, the “Trichothecene in vitro concentration, Inhibitory 100%” value [1] is listed as 5.0 ng/mL and the “Trichothecene in vitro concentration, Cytotoxic Hi” value [2] is listed as 200 ng/mL. The “Trichothecene in vitro concentration, Cytotoxic Lo” value [2] was 6 ng/mL and the cell viability [3] was “Neither reduced cell viability”.
